# Data reported in doi:10.1101/2025.09.20.677545v1, “Parallel Evolution of a Drimenol Biosynthetic Gene Cluster Unique to Marine Bacteria” (biorxiv, 2025).
# Experiments:
# Assay type in all cases: biochemical
# FeFPPS = target: T1, FeFPPS (Flavivirga eckloniae, UniProt A0A2K9PVX7); assay: GC-MS of farnesol after alkaline phosphatase (BAP) treatment; conditions: 100 μM GPP with 100 μM IPP; otherwise same
# T1 construct: gene C1H87_21960; codon-optimized, N-terminal His8 tag kept, pET28b(+), E. coli BL21 Star (DE3), TALON
# T1 sequence (A0A2K9PVX7 1-289): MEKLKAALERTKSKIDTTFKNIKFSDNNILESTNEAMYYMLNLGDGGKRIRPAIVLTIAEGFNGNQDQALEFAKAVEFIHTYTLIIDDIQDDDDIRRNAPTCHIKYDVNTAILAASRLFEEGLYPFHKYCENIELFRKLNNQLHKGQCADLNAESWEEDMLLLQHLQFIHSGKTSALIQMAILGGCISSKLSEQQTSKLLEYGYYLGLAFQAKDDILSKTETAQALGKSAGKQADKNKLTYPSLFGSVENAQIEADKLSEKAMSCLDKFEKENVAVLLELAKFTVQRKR
# AsFPPS = target: T2, AsFPPS (Aquimarina spongiae, UniProt A0A1M6CXH4); assay: as above; conditions: 100 μM GPP with 100 μM IPP; otherwise same
# T2 construct: gene SAMN04488508_102321; codon-optimized, N-terminal His8 tag kept, pET28b(+), E. coli BL21 Star (DE3), TALON
# T2 sequence (A0A1M6CXH4 1-289): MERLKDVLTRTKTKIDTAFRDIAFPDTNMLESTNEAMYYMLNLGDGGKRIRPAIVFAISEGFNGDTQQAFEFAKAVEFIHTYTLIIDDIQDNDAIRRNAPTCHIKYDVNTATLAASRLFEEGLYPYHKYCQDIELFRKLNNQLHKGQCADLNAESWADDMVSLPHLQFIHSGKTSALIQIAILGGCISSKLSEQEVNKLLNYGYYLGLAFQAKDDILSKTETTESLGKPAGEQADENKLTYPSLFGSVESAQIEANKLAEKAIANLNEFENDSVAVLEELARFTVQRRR
# Sc terpene synthase β = target: T3, Sc terpene synthase β (Sorangium cellulosum, UniProt Z9XJ57G830); assay: GC-MS of product after alkaline phosphatase (BAP) treatment; conditions: […] FPP, […] enzyme, […] Tris-HCl pH […] MgCl2 (Mg2+ not required), […] °C; cyclization to a diphosphate, product seen only after BAP
# T3 construct: codon-optimized, N-terminal His8 tag kept, pET28b(+), E. coli BL21 Star (DE3), TALON; single β domain with DxDVT134-138 motif
# T3 sequence (Z9XJ57G830 1-342): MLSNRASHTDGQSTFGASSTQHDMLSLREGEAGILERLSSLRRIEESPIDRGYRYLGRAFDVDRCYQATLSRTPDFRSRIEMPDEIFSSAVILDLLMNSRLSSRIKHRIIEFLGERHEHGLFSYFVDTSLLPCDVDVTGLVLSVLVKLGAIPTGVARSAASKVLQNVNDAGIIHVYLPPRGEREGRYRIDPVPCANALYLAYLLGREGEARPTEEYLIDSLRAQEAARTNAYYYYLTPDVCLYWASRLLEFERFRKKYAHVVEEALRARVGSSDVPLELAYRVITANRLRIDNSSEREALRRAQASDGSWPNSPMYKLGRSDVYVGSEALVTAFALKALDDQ
SMILES,GC-MS of farnesol after alkaline phosphatase (BAP) treatment (FeFPPS),GC-MS of farnesol after alkaline phosphatase (BAP) treatment (AsFPPS),GC-MS of product after alkaline phosphatase (BAP) treatment (Sc terpene synthase β)
CC(C)=CCC/C(C)=C/COP(=O)(O)OP(=O)(O)O [geranyl pyrophosphate],dimethylallyl pyrophosphate (DMAPP) or geranyl pyrophosphate (GPP) as an allylic substrate,dimethylallyl pyrophosphate (DMAPP) or geranyl pyrophosphate (GPP) as an allylic substrate,–
CC(C)=CCC/C(C)=C/CC/C(C)=C/COP(=O)(O)OP(=O)(O)O [farnesyl pyrophosphate],–,–,Sc terpene synthase β is monofunctional and performs only the cyclization step of FPP
